The test system of data set [1] is RIF-1 murine fibrosarcoma. Description: RIF-1 fibrosarcoma tumor growth delay (tumor volume quadrupling time) in mice. The conditions noted are these: for enhancement of amonafide activity by sensitizing or potentiating agent: agent given with amonafide. The class given is in vivo, Female C3H mice. From the text: Tables 1 and 2, shown in FIGS. 1 and 2, respectively, show the use of amonafide, alone or in combination with another anti-neoplastic drug, in a tumor model in mice as described below Female C3H mice (Charles River Laboratories, Hollister, Calif.), approximately 3 months old, were used for the study. The average body weight was approximately 25 g. Animals were maintained in isolator cages on a 12-hour light-and-dark cycle. Food and water were available ad libitum. The RIF-1 murine fibrosarcoma cell line was maintained in in vitro culture (Waymouth medium supplemented with 20% fetal bovine serum) at 37° C. in a humidified 5% CO2 incubator. Log-phase RIF-1 cells were trypsinized and harvested from cell culture flasks to yield a concentration of 4×10^6 cells/mL, then injected intradermally in a volume of 50 μL (equivalent to 2×10^5 cells per injection) into both flanks of each mouse. Nine days later, when tumors reached approximately 100 mm^3 in size, the animals were randomized to different treatment groups. The intraperitoneal injection volume was 100 μL. The oral administration volume was 100 μL. For evaluation of tumor growth delay, tumors were measured three times weekly for up to 22 days with Vernier calipers. Tumor volume (cubic millimeters, mm^3) was calculated according to the following formula: V=π/6×D1×D2×D3, where D1, D2, and D3 are perpendicular diameters measured in […]. Tumor volume quadrupling time (TVQT), defined as the time required for a tumor to grow to four times (4×) its initial volume (at the time of treatment), was used as a study endpoint. The TVQT was determined for each treatment group and expressed in days as the mean±standard error (SE). In these tables, “CDDP” is cisplatin, “VBL” is vinblastine, “HHT” is homoharringtonine, “5FU” is 5-fluorouracil, “CPT” is camptothecin, “RA” is rosmarinic acid, and “MGBG” is methylglyoxalbisguanylhydrazone. For solvents and excipients, “Sal” is saline, “NMF” is N-methylformamide, and “PEG400” is polyethylene glycol 400. For routes of administration, “IP” is intraperitoneal, “PO” is oral, “IM” is intramuscular, and “SC” is subcutaneous. In these tables, the use of the “+” symbol means that both drugs were administered at the same time, while the use of the “ ? ” symbol means that the drug to the left of the symbol was administered first, followed by the drug to the right of the symbol; the second drug was administered 30 minutes after the first drug. In the headings for these tables, “Days to 4×” is the number of days it takes the tumors to grow to four times their original size. “T/C” represents the average number of days that it takes the tumors to grow to four times their original size for the specified treatment divided by the number of days that it takes the tumors to grow to four times their original size for the control.

Another data set deals with topoisomerase II. The conditions noted are these: Hsiang et al. 1989; cited from earlier work.
The target in another data set is T1, N-acetyltransferase NAT2 (Homo sapiens, UniProt P11245).
T1 sequence (P11245 1-290): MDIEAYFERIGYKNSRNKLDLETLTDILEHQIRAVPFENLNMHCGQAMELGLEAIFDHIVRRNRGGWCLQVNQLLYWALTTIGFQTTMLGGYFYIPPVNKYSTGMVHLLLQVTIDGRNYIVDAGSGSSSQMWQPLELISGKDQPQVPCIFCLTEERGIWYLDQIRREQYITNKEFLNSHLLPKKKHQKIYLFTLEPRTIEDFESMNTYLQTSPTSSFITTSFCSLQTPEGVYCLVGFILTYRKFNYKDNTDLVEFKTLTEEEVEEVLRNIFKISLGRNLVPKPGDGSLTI
The settings on record: cited from earlier work.

Data set [2] addresses glycogen synthase kinase-3β (GSK-3β) (Homo sapiens, UniProt P49841). The conditions noted are these: cited from earlier work.
Data set [3] relates to white blood cell count (WBC). The settings on record: patients; cited from earlier work.

glycogen synthase kinase-3β (GSK-3β), sequence (P49841 whole entry, species assumed): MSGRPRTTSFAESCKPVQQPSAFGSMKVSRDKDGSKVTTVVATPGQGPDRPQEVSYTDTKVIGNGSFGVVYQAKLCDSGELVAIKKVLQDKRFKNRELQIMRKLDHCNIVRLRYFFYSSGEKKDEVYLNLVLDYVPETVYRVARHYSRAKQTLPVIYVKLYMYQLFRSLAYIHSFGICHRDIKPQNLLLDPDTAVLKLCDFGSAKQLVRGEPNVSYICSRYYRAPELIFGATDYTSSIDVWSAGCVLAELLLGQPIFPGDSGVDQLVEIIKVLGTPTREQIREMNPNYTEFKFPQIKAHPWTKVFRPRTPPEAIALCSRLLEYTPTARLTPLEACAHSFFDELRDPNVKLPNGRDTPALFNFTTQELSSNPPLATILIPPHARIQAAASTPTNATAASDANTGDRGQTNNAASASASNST

With `NC(=O)c1cccnc1` [nicotinamide], in data set [1], the “enhancement of amonafide activity by sensitizing or potentiating agent” value is on record as “enhances amonafide activity”.

In the case of `COc1ccc2cc3[n+](cc2c1OC)CCc1cc2c(cc1-3)OCO2` [berberine], in data set [1], the “enhancement of amonafide activity by sensitizing or potentiating agent” value was “enhances amonafide activity”.

Regarding `CN(C)CCN1C(=O)c2cccc3cc(N)cc(c23)C1=O` [amonafide, 5-amino-2-[2-(dimethylamino)ethyl]-1H-benzo[de]isoquinoline-1,3(2H)-dione], in the data set with topoisomerase II, the “promotion of topoisomerase II-mediated DNA cleavage” value is reported as “promote topoisomerase II-mediated DNA cleavage”. Also, the “metabolism by NAT2” value at N-acetyltransferase NAT2 is “converted to an active metabolite by way of the N-acetyltransferase NAT2”. The “effect on tumor growth” value in data set [1] (RIF-1 tumors in C3H mice, alone or in combination with another anti-neoplastic drug) is recorded as “significant effect on tumor growth”. The “combination effect with another anti-neoplastic drug” value in data set [1] (amonafide administered together with another anti-neoplastic drug) is “evidence of synergism”. Besides, the “enhancement of antitumor effects of other drugs (chemosensitizer or chemopotentiator)” value in data set [1] (amonafide combined with a second drug) was “enhanced the antitumor effects of cisplatin, 5-fluorouracil, homoharringtonine, vinblastine, camptothecin, methylglyoxalbisguanylhydrazone, and cytarabine”. Moreover, in data set [1] (direct systemic (intraperitoneal) administration or oral route), the “antiproliferative activity by route” value is on record as “active antiproliferative agent”. Moreover, the activity by schedule result in data set [1] (single administration or multiple oral doses) is on record as “active after a single administration or given as multiple doses orally”.

For the compound `CN1C(=O)/C(=C2/C(=O)Nc3ccccc32)c2ccccc21` [Meisoindigo], the “concentration for inhibition of GSK-3β” value in data set [2] was 5 to 50 nM.

Regarding `CC(=O)Nc1cc2c3c(cccc3c1)C(=O)N(CCN(C)C)C2=O` [acetyl amonafide], the “impact on white blood cell count” value in data set [3] was “induce leukocytopenia and, in particular, granulocytopenia”.

Source of the values: patent US20160067241A1, “COMPOSITIONS AND METHODS TO IMPROVE THE THERAPEUTIC BENEFIT OF SUBOPTIMALLY ADMINISTERED CHEMICAL COMPOUNDS INCLUDING SUBSTITUTED NAPHTHALIMIDES SUCH AS AMONAFIDE FOR THE TREATMENT OF IMMUNOLOGICAL, METABOLIC, INFECTIOUS, AND BENIGN OR NEOPLASTIC HYPERPROLIFERATIVE DISEASE CONDITIONS” (priority 2013, published 2016).
